# “Also recorded” adds a separate entry of the source. Square brackets hold non-standard residues; d marks the D form. Ends that are not written are not given here. Linker = not defined here
# Legend:
# [1] = system: adoptive transfer models in mice; conditions: cited from earlier work
# [2] = system: NOD/LtSz Rag1^−/− mice; assay: Diabetes adoptive transfer of diabetogenic splenocytes; format: in vivo, mouse; conditions: for blood glucose levels compared with PBS treatment: 4 to 5 weeks post-transfer
# Method: Single cell suspensions of splenocytes were isolated from spleens of spontaneously diabetic female NOD/ShiLtJ mice as otherwise described in J. Glawe et al. (2009) Genetic deficiency of Itgb2 or ItgaL prevents autoimmune diabetes through distinctly different mechanisms in NOD/LtJ mice. Diabetes 58: 1292-1301, Erythrocytes were lysed with 150 mM NH4Cl, 1.0 mM/l KHCO3, and 0.1 mM disodium EDTA, and then resuspended in PBS at 200×10^6 splenocytes per ml. Female NOD/LtSz Rag1^−/− mice were injected retro-orbitally with 20×10^6 splenocytes.
# The recipient mice were then injected retro-orbitally, either once or three times per week, with the SDF-1 peptide mimetic CTCE-0214 (SEQ ID NO. 2, KPVSLSYRCPCRFF-Linker-LKWIQEYLEKALN-OH) (British Canadian BioSciences, Vancouver, BC, Canada) at 1 or 10 mg/kg, or with PBS. See K Li, et al., “Small peptide analogue of SDF-1a supports survival of cord blood CD34+ cells in synergy with other cytokines and enhances their ex vivo expansion and engraftment into nonobese diabetic/severe combined immunodeficient mice,” Stem Cells, vol, 24, pp. 56-64 (2006); R. Zhong et al., “Small peptide analogs to stromal derived factor 1 enhance chemotactic migration of human and mouse hematopoietic cells,” Experimental Hematology, vol 32, pp. 470-475 (2004); A. Faber at al., “The many facets of SDF-1, CXCR4 agonists and antagonists on hematopoietic progenitor cells,” Journal of Biomedicine and Biotechnology, Article ID 26065; doi: 10.1155/200726065 (2007). Blood glucose was measured twice per week via a tail stick assay (Ascensia Glucometer Elite; Bayer, Leverkusen, Germany). Mice were considered hyperglycaemic following two consecutive measurements at 13.9 mM (250 mg/dl) glucose. Another SDF-1 mimetic that could be used is the CTCE-9908 peptide disclosed by A. Faber at al. (2007).
# [3] = system: CD34^+ cells; conditions: at much higher concentrations than SDF-1; cited from earlier work
# [4] = system: NOD/ShiLtJ T cells on TNFα-activated MS1 islet endothelial cells; assay: Parallel plate flow chamber T cell adhesion assay with SDF-1 peptide mimetic; format: cell-based, mouse; conditions: 150 mPa; for TNFα-induced firm adhesion of T cells (fold change in number of adherent cells): MS1 cells treated 10 minutes with mimetic at 200, 1000 or 5000 ng/ml after 10 ng/ml TNFα, versus TNFα alone
# Method: Hydrodynamic flow chamber assays were performed as otherwise described in C. Sharp et al. (2008). Briefly, T cells isolated as described above were labeled with CellTracker Green (C7025; Life Technologies, Carlsbad, Calif., USA), rinsed, and resuspended at a concentration of 2×10^6 cells/ml in phenol red-free Hanks' balanced salt solution (HBSS). The cells were placed in a beaker that had been previously coated with Sigmacote (Sigma-Aldrich), kept at 37° C., and stirred at 60 rev/min. A flow chamber insert and gasket with a 0.5 cm flow width and 250 μm thickness (GlycoTech, Gaithersburg, Md., USA) were used with 35 mm cell culture dishes containing confluent MS1 cell cultures to form a parallel plate flow chamber. To activate endothelial cells, MS1 cells were treated for 4 to 6 hours at 37° C. with 10 ng/ml recombinant mouse TNFα (T7539; Sigma).
# For the SDF-1 peptide mimetic T cell adhesion assay, MS1 cells were rinsed with HBSS and treated for 10 minutes with an SDF-1 peptide mimetic (AYWKENKEQ with two branched lysines as a linker between the two motifs, SEQ ID NO 1) at […]. This peptide was a linearized version of a cyclized SDF-1 analogue reported by Tudan et al., “C-terminal cyclization of an SDF-1 small peptide analogue dramatically increases receptor affinity and activation of CXCR4 receptor,” J. Med. Chem., vol. 45, pp. 2024-31 (2002). T cells were pumped through polypropylene tubing by a syringe pump (KD Scientific, Holliston, Mass., USA) across the endothelial monolayer at a physiological shear stress of 150 mPa. Real-time digital video images (minimum 28 frames/second) were captured with an epifluorescence microscope (TE-2000 Eclipse; Nikon, Tokyo, Japan) and digital camera (Model C4742-95-12ER: Hamamatsu Photonics, Hamamatsu, Japan). Simple PCI software (Hamamatsu Photonics) was used to analyze the video and to measure T cell rolling velocities. Cells were considered firmly adherent if they remained stationary for 10 seconds within the field of view. A minimum of three videos per plate and four plates per condition were used for analysis.
# We examined whether a linear SDF-1 peptide mimetic containing the receptor-binding site could replicate the effect of full length SDF-1 in blocking adhesion of T cells to activated endothelium. MS1 cells were treated for 4 hours with 10 ng/ml TNFα, followed by treatment for 10 minutes with an SDF-1 peptide mimetic at 200, 1000, or 5000 ng/ml. Cells were then tested in a parallel plate flow chamber cell adhesion assay. Fluorescently labeled T cells obtained from NOD/ShiLtJ mice flowed over the endothelial monolayers at 150 mPa. […] Leucocyte adhesion videos were analyzed to calculate T cell rolling velocity and to determine whether the decrease in firm adhesion was due to a decreased number of rolling cells.
# [5] = system: NOD/ShiLtJ T cells on VCAM-1- and ICAM-1-coated plates; assay: SLIT2 T cell detachment assay on VCAM-1- and ICAM-1-coated plates; format: cell-based, mouse; conditions: SDF-1 plus 20 μg/ml SLIT2 versus SDF-1 alone
# Method: T cell detachment assays were performed as otherwise described in C. Sharp et al. (2008). T cells were injected into the tubing via an inlet port upstream of the flow chamber at a concentration of 2×10^6 cells/ml and allowed to firmly adhere under static conditions for 15 minutes. Next, shear stress was initiated and increased in a step-wise manner every 30 seconds as follows: 35, 56, 91, 224, 504, and 980 mPa. The assay was recorded by video, which was analyzed to determine the percentage of cells detached at the end of each shear stress interval. For the anti-ROBO1 detachment assay, MS1 cells were treated for […] at 37° C. with TNFα as described above and then with 100 ng/ml recombinant mouse SDF-1α (460-SD; R&D Systems). T cells were pre-treated for 30 minutes at 37° C. with 20 μg/ml ROBO1 blocking antibody (GT15144; Neuromics, Edina, Minn., USA) or isotype control (GT15900; Neuromics).
# For the SLIT2 detachment assay, the following modifications were made. Vascular cell adhesion molecule 1 (VCAM-1)- and intercellular cell adhesion molecule 1 (ICAM-1)-coated plates were substituted for confluent monolayers of MS1 cells to isolate the specific ligand and receptor interactions involved. Plates were treated by tracing five 5 mm diameter circles aligned in one row in the center of a 100 mm diameter tissue culture dish using a PAP pen, and then applying 15 μl of 1 mg/ml protein A to each circle for 30 minutes. Plates were rinsed twice with PBS and blocked for 30 minutes with 5% (wt/vol) BSA in PBS. Plates were rinsed and each circle was then treated for 30 minutes with 15 μl of a solution containing 5 μg/ml ICAM-1/Fc chimera (796-IC; R&D Systems) and 5 μg/ml VCAM-1/Fc chimera (643-VM; R&D Systems), or PBS (control). Plates were rinsed and stored at 4° C. T cells were suspended in HBSS containing, 10 μg/ml heparin sodium and treated for 15 minutes at 37° C. with 250 ng/ml SDF-1 and 20 μg/ml recombinant mouse SLIT2 (5444-SL; R&D Systems) before use. A Glycotech rectangular flow chamber with a 250 μm thick gasket and a 1 cm wide flow path was used. […]
molecule,measurement,setting,value
c1cc(CN2CCCNCCNCCCNCC2)ccc1CN1CCCNCCNCCCNCC1 [AMD3100],development of diabetes,[1]; disruption of SDF-1-CXCR4 binding,accelerate the development of diabetes
same,beta cell apoptosis,"[1]; mouse, in vivo",induce beta cell apoptosis
"KPVSLSYRCPCRFF-Linker-LKWIQEYLEKALN-OH (KPVSLSYRCPCRFF[Linker]LKWIQEYLEKALN-OH; cysteine pairing not given here; reading uncertain; also: printed as KPVSLSYRCPCRFF-Linker-LKWIQEYLEKALN-OH) [CTCE-0214, 2, small peptide CXCR4 agonist from British Canadian BioSciences]",progression of autoimmune diabetes,[2]; 1 mg/kg,almost no effect
same,blood glucose levels compared with PBS treatment,[2]; 1 mg/kg three times per week,not
same,blood glucose levels compared with PBS-treated mice,"[2]; 10 mg/kg once per week, retro-orbital, 5.5 and 6 weeks post-transfer",significantly reduced glucose levels
same,development of hyperglycaemia compared with PBS treatment,[2]; 10 mg/kg one time per week,delayed development of hyperglycaemia
same,development of hyperglycaemia compared with PBS treatment,[2]; 10 mg/kg three times per week,delayed development of hyperglycaemia
same,blood glucose levels compared with PBS treatment,[2]; 10 mg/kg three times per week,significantly reduced glucose levels
same,"adoptive transfer / progression of autoimmune diabetes, onset of hyperglycaemia",[2]; 10 mg/kg where a dose is stated,significantly delayed the onset of hyperglycaemia; also recorded: therapeutically beneficial; also recorded: effectively delayed adoptive transfer of diabetes; also recorded: slowed the development of diabetes
same,effect of dosing frequency on incidence of hyperglycaemia,[2]; once per week versus three times per week,better reduction in the incidence of hyperglycaemia at a dosing of once per week; also recorded: more beneficial effect at once-a-week dosing
same,migration of CD34^+ cells,[3],increases migration
same,TNFα-induced firm adhesion of T cells (fold change in number of adherent cells),[4],can reduce
"AYWKENKEQ with two branched lysines as a linker between the two motifs (also: two branched lysines as a linker between the two motifs) [SDF-1 peptide mimetic, linearized version of a cyclized SDF-1 analogue reported by Tudan et al]",TNFα-induced firm adhesion of T cells (fold change in number of adherent cells),[4],prevented NOD T cell adhesion; also recorded: significantly reduced; also recorded: reversed
same,number of rolling cells,"[4]; TNFα-treated MS1 cells, data not shown",did not decrease
same,T cell rolling velocity,"[4]; TNFα-treated endothelial cells, versus control",did not significantly affect
"SLIT2: recombinant mouse SLIT2 (5444-SL; R&D Systems), ligand of ROBO1 (protein) QACPAQCSCSGSTVDCHGLALRSVPRNIPRNTERLDLNGNNITRITKIDFAGLRHLRVLQLMENRISTIERGAFQDLKELERLRLNRNNLQLFPELLFLGTAKLYRLDLSENQIQAIPRKAFRGAVDIKNLQLDYNQISCIEDGAFRALRDLEVLTLNNNNITRLSVASFNHMPKLRTFRLHSNNLYCDCHLAWLSDWLRQRPRVGLYTQCMGPSHLRGHNVAEVQKREFVCSGHQSFMAPSCSVLHCPAACTCSNNIVDCRGKGLTEIPTNLPETITEIRLEQNSIRVIPPGAFSPYKKLRRLDLSNNQISELAPDAFQGLRSLNSLVLYGNKITELPKSLFEGLFSLQLLLLNANKINCLRVDAFQDLHNLNLLSLYDNKLQTVAKGTFSALRAIQTMHLAQNPFICDCHLKWLADYLHTNPIETSGARCTSPRRLANKRIGQIKSKKFRCSGTEDYRSKLSGDCFADLACPEKCRCEGTTVDCSNQRLNKIPDHIPQYTAELRLNNNEFTVLEATGIFKKLPQLRKINFSNNKITDIEEGAFEGASGVNEILLTSNRLENVQHKMFKGLESLKTLMLRSNRISCVGNDSFIGLGSVRLLSLYDNQITTVAPGAFDSLHSLSTLNLLANPFNCNCHLAWLGEWLRRKRIVTGNPRCQKPYFLKEIPIQDVAIQDFTCDDGNDDNSCSPLSRCPSECTCLDTVVRCSNKGLKVLPKGIPKDVTELYLDGNQFTLVPKELSNYKHLTLIDLSNNRISTLSNQSFSNMTQLLTLILSYNRLRCIPPRTFDGLKSLRLLSLHGNDISVVPEGAFNDLSALSHLAIGANPLYCDCNMQWLSDWVKSEYKEPGIARCAGPGEMADKLLLTTPSKKFTCQ",shear-mediated T cell detachment from VCAM-1- and ICAM-1-coated plates,[5],significant increase in detachment; also recorded: promoted detachment
same,shear-mediated T cell detachment from VCAM-1- and ICAM-1-coated plates,[5]; listed as Slit-2 peptide containing the LRR domain 2,stimulated detachment
same,shear-mediated T cell detachment from VCAM-1- and ICAM-1-coated plates,[5]; listed as recombinant SLIT2,reversed

# — US10697960B2, “CXCR4 and ROBO1 expression as markers for autoimmune diabetes” (BOARD OF SUPERVISORS OR LOUISANA STATE UNIVERSITY AND …, priority 2012, dated 2020)
